Assays:
[1] = tested on: ADP-Induced Aggregation In Rabbit Platelets; experiment: Inhibition of ADP-induced aggregation in rabbit platelets (aggregometer, PRP); format: cell-based; conditions: Oryctolagus cuniculus, Platelet, ADP 7.5 × 10^-5 M, PRP 300,000 platelets/mm^3; for inhibition at 100 µM: concentration 10^-4 M; for inhibition at 10 µM: concentration 10^-5 M; for inhibition at 1 µM: concentration 10^-6 M; for inhibition at 0.01 µM: concentration 10^-8 M
Description: (§1) The inhibitory activity of some compounds of this invention and the method for determination of the activity are described hereinafter in greater detail.
(§2) The aggregation inhibitory activity was determined using an AG-II type aggregometer (made by Bryston Manufacturing Co.). A blood sample was withdrawn from rabbits as a mixture of sodium citrate and whole blood in a proportion of 1:9 by volume and centrifuged at 1000 rpm for 10 minutes to obtain a platelet rich plasma (PRP). The resulting PRP was separated, and the remaining blood sample was further centrifuged at 3000 rpm for 15 minutes to obtain a platelet poor plasma (PPP).
(§3) The number of platelets in the PRP was counted in accordance with the Brecher-Clonkite Method, and the PRP was diluted with the PPP to prepare a PRP sample containing platelets in an amount of 300,000/mm^3 for an adenosine diphosphate (ADP)-induced aggregation test and a PRP sample containing platelets in an amount of 450,000/mm^3 for a collagen-induced aggregation test.
(§4) 0.01 ml of a solution of a test compound having a predetermined concentration (as shown in the Tables below) was then added to 0.6 ml of the PRP sample obtained above and the mixture was incubated at a temperature of 37° C for 1 minute. Then 0.07 ml of an ADP or collagen solution was added to the mixture. The mixture was then subjected to a transmittance determination and changes in the transmittance of the mixture were recorded using aggregometer at a stirrer rotation rate of 1100 rpm. In this test, Owren Veronal buffer (pH 7.35) was used for the preparation of solutions of ADP, collgen and the test compounds. ADP was adjusted to a concentration of 7.5 × 10^-5 M, and the collagen solution was prepared by triturating 100 mg of collagen with 5 ml of the above buffer and the supernatant obtained was used as a collagen inducer. Adenosine and acetylsalicylic acid were used as controls for the ADP-induced aggregation test and the collagen-induced aggregation test, respectively. The aggregation inhibitory activity was determined in terms of the percent inhibition (%) with respect to the aggregation ratio of controls. The aggregation ratio can be calculated by the following equation: [formula] Wherein:
(§5) "a" is the optical density of the PRP,
(§6) "b" is the optical density of the PRP having incorporated therein a test compound and an aggregation inducer, and
(§7) "c" is the optical density of the PPP.

[2] = tested on: Collagen-Induced Aggregation In Rabbit Platelets; experiment: Inhibition of collagen-induced aggregation in rabbit platelets (aggregometer, PRP); format: cell-based; conditions: Oryctolagus cuniculus, Platelet, PRP 450,000 platelets/mm^3; for inhibition at 100 µM: concentration 10^-4 M; for inhibition at 10 µM: concentration 10^-5 M; for inhibition at 1 µM: concentration 10^-6 M; for inhibition at 0.01 µM: concentration 10^-8 M
Description: as §1, §2, §3, §4, §5, §6, §7

SMILES | inhibition at 100 µM ([2]; table 2) [%] | inhibition at 1 µM ([2]; table 2) [%] | inhibition at 0.01 µM ([2]; table 2) [%] | inhibition at 100 µM ([1]; table 3) [%] | inhibition at 1 µM ([1]; table 3) [%] | inhibition at 0.01 µM ([1]; table 3) [%] | also measured
O=C1CCc2c(cccc2OCC(O)CO)N1 (centres unmarked) [drawing 47] | – | – | – | – | – | – | inhibition at 100 µM ([1]; table 4): 51%; inhibition at 10 µM ([1]; table 4): 18%; inhibition at 1 µM ([1]; table 4): 18%; inhibition at 0.01 µM ([1]; table 4): 15%
O=C1CCc2c(cccc2OCC(O)CO)N1 (centres unmarked) [drawing 49] | – | – | – | – | – | – | inhibition at 100 µM ([2]; table 5): 95%; inhibition at 10 µM ([2]; table 5): 17%; inhibition at 1 µM ([2]; table 5): 7%; inhibition at 0.01 µM ([2]; table 5): 3%
O=C1CCc2cccc(OCC(O)CO)c2N1 (centres unmarked) [drawing 37] | 25 | 7 | 21 | – | – | – | –
CN1C(=O)CCc2c(OCC(O)CO)cccc21 (centres unmarked) [drawing 33] | 7 | 13 | 0 | – | – | – | –
O=C1CCc2cccc(OCC(O)CO)c2N1 (centres unmarked) [drawing 43] | – | – | – | 25 | 7 | 21 | –
O=C1CCc2cc(OCC(O)CO)ccc2N1 (centres unmarked) [drawing 35] | 100 | 9 | 26 | – | – | – | –
OCC(O)COc1cccc2c(O)nccc12 (centres unmarked) | – | – | – | 2 | 6 | 0 | –
O=C1CCc2c(cccc2OCC(O)CO)N1 (centres unmarked) [drawing 32] | 100 | 11 | 8 | – | – | – | –
C=CCN1C(=O)CCc2c(OCC(O)CO)cccc21 (centres unmarked) [drawing 34] | 0 | 0 | 0 | – | – | – | –
C=CCN1C(=O)CCc2c(OCC(O)CO)cccc21 (centres unmarked) [drawing 40] | – | – | – | 0 | 0 | 0 | –
O=C1CCc2c(cccc2OCC(O)CO)N1 (centres unmarked) [drawing 38] | – | – | – | 21 | 17 | 21 | –
O=C1CCc2ccc(OCC(O)CO)cc2N1 (centres unmarked) [drawing 42] | – | – | – | 13 | 18 | 4 | –
O=C1CCc2cc(OCC(O)CO)ccc2N1 (centres unmarked) [drawing 41] | – | – | – | 100 | 9 | 26 | –
O=C1CCc2ccc(OCC(O)CO)cc2N1 (centres unmarked) [drawing 36] | 13 | 18 | 4 | – | – | – | –
O=C1CCc2c(cccc2OC[C@H](O)CO)N1 [drawing 46] | – | – | – | – | – | – | inhibition at 100 µM ([1]; table 4): 49%; inhibition at 10 µM ([1]; table 4): 16%; inhibition at 1 µM ([1]; table 4): 8%; inhibition at 0.01 µM ([1]; table 4): 0%
O=C1CCc2c(cccc2OC[C@H](O)CO)N1 [drawing 48] | – | – | – | – | – | – | inhibition at 100 µM ([2]; table 5): 95%; inhibition at 10 µM ([2]; table 5): 3%; inhibition at 1 µM ([2]; table 5): 3%; inhibition at 0.01 µM ([2]; table 5): 0%
CN1C(=O)CCc2c(OCC(O)CO)cccc21 (centres unmarked) [drawing 39] | – | – | – | 7 | 13 | 0 | –
CC(=O)Oc1ccccc1C(=O)O [Acetylsalicylic Acid, reference compound] | – | – | – | – | – | – | inhibition at 100 µM ([2]; table 5): 100%; inhibition at 10 µM ([2]; table 5): 12%; inhibition at 1 µM ([2]; table 5): 8%
Nc1ncnc2c1ncn2[C@@H]1O[C@H](CO)[C@@H](O)[C@H]1O [Adenosine, reference compound] | – | – | – | 70 | 47 | 5 | inhibition at 100 µM ([1]; table 4): 92%; inhibition at 10 µM ([1]; table 4): 74%; inhibition at 1 µM ([1]; table 4): 63%; inhibition at 0.01 µM ([1]; table 4): 15%
